Values quoted from earlier work in US11246852B2, “Fast-acting plant-based medicinal compounds and nutritional supplements” (RECEPTOR HOLDINGS, INC., priority 2016, dated 2022).

CCCCCc1cc(O)c2c(c1)OC(C)(C)[C@@H]1CCC(C)=C[C@@H]21 [THC, delta-9-tetrahydrocannabinol]
appetite stimulant effect may continue for (after administration): ≥ 24 h
duration of action (after oral administration, psychoactive effects): 4 to 6 h
